Assay results taken from US6528272B2 (priority 1997, dated 2003).

These substances were tested against SEB (Staphylococcus aureus, UniProt P01552).
Sequence of SEB (P01552 28-266 limits assumed): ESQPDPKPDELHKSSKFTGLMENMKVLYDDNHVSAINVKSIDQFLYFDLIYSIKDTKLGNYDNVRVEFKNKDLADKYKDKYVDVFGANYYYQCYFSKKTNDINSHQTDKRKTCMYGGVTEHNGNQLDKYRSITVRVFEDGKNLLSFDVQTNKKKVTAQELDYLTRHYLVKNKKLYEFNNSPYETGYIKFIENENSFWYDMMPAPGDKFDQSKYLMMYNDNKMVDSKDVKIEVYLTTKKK
Format: binding
glucosylceramide [GlcCer] was tested, and the “binding of SEB to glycosphingolipid” value was “did not significantly bind”.
With digalactosylceramide [diGalCer] the “binding of SEB to glycosphingolipid” value was “strong binding”.
For galactosylceramide [GalCer], the “binding of SEB to glycosphingolipid” value was “did not significantly bind”.
With lactosylceramide [LacCer] the “binding of SEB to glycosphingolipid” value was “did not significantly bind”.
